From US9939427B2, “Method for evaluating the scent performance of perfumes or perfume mixtures” (Symrise AG, priority 2013, dated 2018)

Molecular target: T1, OR10Q1 (Homo sapiens, UniProt Q8NGQ4)
T1 construct: specific primers, which amplify the complete open reading frame; expressed in transfected cells; host or cells: HEK293
T1 sequence (Q8NGQ4 1-319): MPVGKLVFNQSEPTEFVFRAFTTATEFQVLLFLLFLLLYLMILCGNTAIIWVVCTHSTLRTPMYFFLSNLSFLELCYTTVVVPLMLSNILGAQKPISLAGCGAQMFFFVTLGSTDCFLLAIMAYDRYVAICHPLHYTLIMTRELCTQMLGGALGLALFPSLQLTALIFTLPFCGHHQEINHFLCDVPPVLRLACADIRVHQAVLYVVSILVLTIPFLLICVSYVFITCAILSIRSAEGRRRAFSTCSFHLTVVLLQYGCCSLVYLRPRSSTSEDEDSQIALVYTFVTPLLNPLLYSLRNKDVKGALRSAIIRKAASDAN
Test: CRE-luciferase assay, OR10Q1 in HANA3A cells
Type: cell-based
Conditions: 50 μM, 100 μM, 150 μM, 200 μM and 250 μM; ratio of firefly to renila
Protocol: Calcium cations and phosphate anions created crystal precipitations coupled with DNA which could invade into the cells through endocytosis. Cells were transiently transfected with plasmid DNA which consists of pCI expression vector and PCR-amplified full-length cDNA of olfactory receptors candidates, and also Gα15, RTP1, Myr-Ric8A, HSC70, and m-Cherry as cofactors. The precipitation could be created after 15-20 min, with dropping the transfection solution on HEK293 cells. Before measuring by Ca-imaging cells were incubated 48-60 hours at 370 C, 5% CO2. Cationic liposome-mediated transfection method was applied to transfect DNA plasmid transiently in HANA3A cells in case of CRE-Luciferase and CRE-SEAP assays. […]
ORs responded by Ca-imaging with seven separate odorant mixtures formed from 66 odorants. […] Transfected HANA3A cells on poly-D-lysine-coated 96 well plates are ready for stimulation after 24 h. […] Measuring by plate reader (Luminometer). • 6. […] Measuring by plate reader (Luminometer). • 8. According to manufacturer's protocols for measuring luciferase and renilla activities, calculate normalized luciferase activity with using the formula (Ln-Lmin)/(Lmax-Lmin), where Ln is the luminescence of firefly in response to the odorant, L min is the minimum luciferase value on a plate, and L max is the maximum luciferase value on plate. […]

## O=C1CCCCCCCCCCCCCCO1 [Pentadecanolide, ω-cyclopentadecanolide]
  CRE-luciferase (cAMP assay) response of OR10Q1: positive responses
